The subject of series [1] is human CETP mRNA. Kind of series: Dose-dependent antisense inhibition of human CETP in SW872 liposarcoma cells (Example 3). The series is classed as cell-based. The note with it: Lipofectin, ~16 hours (Example 3). Here is the method: ISIS 17291 ([…], 6-8-6 MOE (SEQ ID NO: 115)), ISIS 17302 ([…], 6-8-6 MOE (SEQ ID NO: 116)), and ISIS 17305 ([…], 6-8-6 MOE (SEQ ID NO: 117), first disclosed in U.S. Ser. No. 11/031,827 (incorporated by reference herein), were also tested under the same conditions. Cells were plated at a density of 50,000 cells per well in a 24-well plate and transfected using Lipofectin reagent with 50 nM, 150 nM, and 300 nM concentrations of each antisense oligonucleotide. After approximately 16 hours, RNA was isolated from the cells and CETP mRNA levels were measured by quantitative real-time PCR. CETP mRNA levels were normalized to total RNA content, as measured by the house-keeping gene, GAPDH mRNA levels. Results are presented in Table 5 as percent inhibition of CETP, relative to untreated control cells.

Series [2] deals with human CETP mRNA. Kind of series: Antisense inhibition of human CETP mRNA in SW872 liposarcoma cells (Example 1). Format: cell-based. The note with it: 150 nM antisense oligonucleotide, lipofectin, ~24 hours, relative to untreated control cells. A digest of the protocol:
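SW872 cells transfected (lipofectin) with 150 nM 5-10-5 MOE gapmer (phosphorothioate, 5-methylcytosine). After about 24 h, CETP mRNA measured by qRT-PCR, normalized to GAPDH; values are % inhibition versus untreated cells.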

The test system of series [3] is human CETP mRNA. Kind of series: Dose-dependent antisense inhibition of human CETP in SW872 liposarcoma cells (Example 2). Format: cell-based. Particulars: Lipofectin, ~16 hours (Example 2). Here is the method: Cells were plated at a density of 50,000 cells per well in a 24-well plate and transfected using Lipofectin reagent with 50 nM, 150 nM, and 300 nM concentrations of each antisense oligonucleotide. After approximately 16 hours, RNA was isolated from the cells and CETP mRNA levels were measured by quantitative real-time PCR. CETP mRNA levels were normalized to total RNA content, as measured by the house-keeping gene, GAPDH mRNA levels. Results are presented in Table 4 as percent inhibition of CETP, relative to untreated control cells.

Series [4] relates to human CETP mRNA. Kind of series: Antisense inhibition of human CETP mRNA in primary hepatocytes from huCETP transgenic mice (Example 4). The note with it: cytofectin, ~24 hours. The series is classed as cell-based, mouse. A digest of the protocol: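 Primary hepatocytes from human CETP transgenic mice, 17,500 cells/well, transfected by cytofectin with 100 nM or 200 nM antisense oligonucleotide. After about 24 h, CETP mRNA quantified by real-time PCR, normalised to GAPDH, as percent inhibition versus untreated cells.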

Strand notation (5' to 3'): a small letter for the sugar, then the base; units joined by * are phosphorothioate-linked, units joined directly phosphodiester-linked; [ ] holds rarer units or linkages, { } end groups; capitals alone tell only the bases. e = 2'-O-(2-methoxyethyl) (MOE); [5mC] = 5-methylcytosine; d = 2'-deoxy (DNA)

Regarding “ISIS 17291: GACAAGTGGCTGATCTGGAT, 6-8-6 MOE; first disclosed in U.S. Ser. No. 11/031,827 (antisense; sugars from the 5' end e6 d8 e6, backbone and methylation of C not given here)”, the “percent inhibition of CETP” value in the series with human CETP mRNA [1] (50 nM) was determined as 35%; in the series on human CETP mRNA [1] (150 nM), 0%; in the series with human CETP mRNA [1] (300 nM), 0%.
With “ISIS 17302: GCTTGCCTTCTGCTACAAGC, 6-8-6 MOE; first disclosed in U.S. Ser. No. 11/031,827 (antisense; sugars from the 5' end e6 d8 e6, backbone and methylation of C not given here)”, the “percent inhibition of CETP” value is on record as 0% in the series on human CETP mRNA [1] (50 nM), 41% with human CETP mRNA [1] (150 nM) and 45% with human CETP mRNA [1] (300 nM).
“ISIS 17305: CCAGTGGGCCTTTAGGATAG, 6-8-6 MOE; first disclosed in U.S. Ser. No. 11/031,827 (antisense; sugars from the 5' end e6 d8 e6, backbone and methylation of C not given here)”: the “percent inhibition of CETP” value with human CETP mRNA [1] (50 nM) was found to be 18%; in the series with human CETP mRNA [1] (150 nM), 44%; in the series with human CETP mRNA [1] (300 nM) it was 55%.
Consider “ISIS 349461: 5-10-5 MOE gapmer ATACTTGACTTGGCCAAGGA (eA*eT*eA*e[5mC]*eT*dT*dG*dA*d[5mC]*dT*dT*dG*dG*d[5mC]*d[5mC]*eA*eA*eG*eG*eA)”, for which, in the series with human CETP mRNA [2], the % inhibition (as a rule, the percentage by which the read-out fell short of the control) is 97%. The “percent inhibition of CETP” value with human CETP mRNA [3] (50 nM) was determined as 75%; in the series on human CETP mRNA [3] (150 nM) it was 80%; in the series with human CETP mRNA [3] (300 nM), 88%. Further, the “Percent inhibition of human CETP mRNA” value came out at 65% with human CETP mRNA [4] (100 nM) and 52% in the series on human CETP mRNA [4] (200 nM).
In the case of “ISIS 349465: 5-10-5 MOE gapmer GAGACATCAATGGACTTGGC (eG*eA*eG*eA*e[5mC]*dA*dT*d[5mC]*dA*dA*dT*dG*dG*dA*d[5mC]*eT*eT*eG*eG*e[5mC])”, in the series on human CETP mRNA [2], the “% inhibition” value came to 87%. In addition, the results for the “percent inhibition of CETP” value with human CETP mRNA [3] (50 nM), in the series with human CETP mRNA [3] (150 nM) and with human CETP mRNA [3] (300 nM) were 96%, 87% and 96%, respectively. The entries for the “Percent inhibition of human CETP mRNA” value in the series with human CETP mRNA [4] (100 nM) and with human CETP mRNA [4] (200 nM) were 50% and 66%, respectively.
For “ISIS 349483: 5-10-5 MOE gapmer CTCTGAGACATTCTTGTAGA (e[5mC]*eT*e[5mC]*eT*eG*dA*dG*dA*d[5mC]*dA*dT*dT*d[5mC]*dT*dT*eG*eT*eA*eG*eA)”, the “% inhibition” value with human CETP mRNA [2] was found to be 85%. Moreover, the results for the “percent inhibition of CETP” value in the series with human CETP mRNA [3] (50 nM), in the series on human CETP mRNA [3] (150 nM) and in the series on human CETP mRNA [3] (300 nM) were 100%, 98% and 85%, respectively. For the same substance, the entries for the “Percent inhibition of human CETP mRNA” value in the series with human CETP mRNA [4] (100 nM) and in the series with human CETP mRNA [4] (200 nM) were 77% and 63%, respectively.
Take “ISIS 349490: 5-10-5 MOE gapmer CCTCTTGGAAGATTTCCTGG (e[5mC]*e[5mC]*eT*e[5mC]*eT*dT*dG*dG*dA*dA*dG*dA*dT*dT*dT*e[5mC]*e[5mC]*eT*eG*eG)”: the “% inhibition” value in the series with human CETP mRNA [2] came out at 89%. Besides, the entries for the “percent inhibition of CETP” value in the series on human CETP mRNA [3] (50 nM), with human CETP mRNA [3] (150 nM) and with human CETP mRNA [3] (300 nM) were 97%, 93% and 88%, respectively. Moreover, the entries for the “Percent inhibition of human CETP mRNA” value with human CETP mRNA [4] (100 nM) and in the series on human CETP mRNA [4] (200 nM) were 36% and 80%, respectively.
Take “ISIS 349506: 5-10-5 MOE gapmer CGCCTTTGCTGTTCATGAGG (e[5mC]*eG*e[5mC]*e[5mC]*eT*dT*dT*dG*d[5mC]*dT*dG*dT*dT*d[5mC]*dA*eT*eG*eA*eG*eG)”: in the series with human CETP mRNA [2], the “% inhibition” value was 92%. For the same substance, the “percent inhibition of CETP” value in the series on human CETP mRNA [3] (50 nM) is recorded as 93%; in the series on human CETP mRNA [3] (150 nM) it was 86%; in the series with human CETP mRNA [3] (300 nM) it was 93%. For the same substance, the entries for the “Percent inhibition of human CETP mRNA” value in the series on human CETP mRNA [4] (100 nM) and in the series with human CETP mRNA [4] (200 nM) were 95% and 99%, respectively.
On to “ISIS 349513: 5-10-5 MOE gapmer TCCAGCTGTGAGCCTGGTGC (eT*e[5mC]*e[5mC]*eA*eG*d[5mC]*dT*dG*dT*dG*dA*dG*d[5mC]*d[5mC]*dT*eG*eG*eT*eG*e[5mC])”, for which, in the series on human CETP mRNA [2], the “% inhibition” value is 83%. Moreover, the “percent inhibition of CETP” value was 97% in the series with human CETP mRNA [3] (50 nM); 100% in the series with human CETP mRNA [3] (150 nM); 95% in the series on human CETP mRNA [3] (300 nM); 87% in the series with human CETP mRNA [1] (50 nM); 89% in the series with human CETP mRNA [1] (150 nM); 91% in the series on human CETP mRNA [1] (300 nM). The “Percent inhibition of human CETP mRNA” value is reported as 73% in the series with human CETP mRNA [4] (100 nM) and 92% with human CETP mRNA [4] (200 nM).

Source of the values: patent publication US20130053430A1, “MODULATION OF CETP EXPRESSION” (Isis Pharmaceuticals, Inc., priority 2010, published 2013).
